# Experimental data from patent publication US11230526B1, “Cylcoalkenyl derivatives useful as agonists of the GPR120 and/or GPR40 receptors” (Janssen Pharmaceutica NV, priority 2018, dated 2022).
# Experiments:
# Human GPR120 short form = target: T1, Human GPR120 short form (Homo sapiens, UniProt Q5NUL3); test: Human GPR120 calcium flux assay, Procedure Calcium A (2500 cells/well); format: cell-based
# T1 construct: expressed in transfected cells
# T1 sequence (Q5NUL3 1-361): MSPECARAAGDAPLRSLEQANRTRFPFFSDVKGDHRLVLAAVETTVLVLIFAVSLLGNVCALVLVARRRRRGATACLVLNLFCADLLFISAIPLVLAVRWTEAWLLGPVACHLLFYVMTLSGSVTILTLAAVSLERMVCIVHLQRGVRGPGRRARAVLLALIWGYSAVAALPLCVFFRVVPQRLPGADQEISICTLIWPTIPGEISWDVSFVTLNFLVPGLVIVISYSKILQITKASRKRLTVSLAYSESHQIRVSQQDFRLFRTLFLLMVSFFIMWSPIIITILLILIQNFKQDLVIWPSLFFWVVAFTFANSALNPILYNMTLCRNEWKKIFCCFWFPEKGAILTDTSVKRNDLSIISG
# Procedure, shortened: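 HEK293 cells stably expressing human GPR120 short isoform (NM_001195755.1), 2500 cells/well, serum-starved 1 h at 37 °C and loaded with Fluo-4 NW plus probenecid. FLIPR fluorescence read for 300 s after compound addition; response = Fmax−Fmin. EC50 from four-parameter concentration–response fit.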
# human GPR40 = target: T2, human GPR40 (Homo sapiens, UniProt O14842); test: GPR40 calcium flux assay, human GPR40; format: cell-based; conditions: HEK293 cells stably expressing GPR40; table does not say human or rat
# T2 construct: expressed in transfected cells
# Procedure, shortened: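 Cells preincubated 1 h at 37° C. in HBSS, 20 mM HEPES, 0.1% BSA, then Fluo 8 calcium dye 30 min at 37° C. and 15 min at room temperature.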
# T2 sequence (O14842 whole entry): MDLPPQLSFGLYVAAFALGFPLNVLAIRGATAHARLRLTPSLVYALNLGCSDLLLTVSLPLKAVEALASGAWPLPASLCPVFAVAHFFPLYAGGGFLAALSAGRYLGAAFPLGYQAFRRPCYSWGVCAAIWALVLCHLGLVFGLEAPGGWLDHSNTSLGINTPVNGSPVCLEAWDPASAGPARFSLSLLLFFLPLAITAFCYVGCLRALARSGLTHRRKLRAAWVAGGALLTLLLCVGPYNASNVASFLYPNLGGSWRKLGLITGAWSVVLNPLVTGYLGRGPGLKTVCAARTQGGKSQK
Compound,EC50 (Human GPR120 short form),EC50 (human GPR40)
"Cc1ccc(C2=C(COc3ccc(CCC(=O)O)c(C)c3C)CCC2)cc1 [Compound 52, 3-[2,3-dimethyl-4-[[2-(p-tolyl)cyclopenten-1-yl]methoxy]phenyl]Propanoic Acid]",0.173 µM,> 10 µM
"Cc1c(CCC(=O)O)ccc(OCC2=C(c3cccc(Cl)c3)CCC2)c1C [Compound 58, 3-[4-[[2-(3-chlorophenyl)cyclopenten-1-yl]methoxy]-2,3-dimethyl-phenyl]Propanoic Acid]",0.546 µM,> 10 µM
"Cc1c(CCC(=O)O)ccc(OCC2=C(c3ccc(Cl)c(Cl)c3)CCC2)c1C [Compound 66, 3-[4-[[2-(3,4-dichlorophenyl)cyclopenten-1-yl]methoxy]-2,3-dimethyl-phenyl]Propanoic Acid]",0.658 µM,> 5 µM
"O=C(O)CCc1ccc(OCC2=C(c3ccc(Cl)cc3)CCC2)c(F)c1F [Compound 70, 3-[4-[[2-(4-chlorophenyl)cyclopenten-1-yl]methoxy]-2,3-difluoro-phenyl]Propanoic Acid]",0.344 µM,> 5 µM
"Cc1ccc(C2=C(COc3ccc(CCC(=O)O)c(F)c3F)CCC2)c(C)c1 [Compound 72, 3-(4-((2-(2,4-dimethylphenyl)cyclopent-1-en-1-yl)methoxy)-2,3-difluorophenyl)Propanoic Acid]",0.658 µM,> 5 µM
"Cc1c(CCC(=O)O)ccc(OCC2=C(c3ccccc3Cl)CCC2)c1C [Compound 76, 3-[4-[[2-(2-chlorophenyl)cyclopenten-1-yl]methoxy]-2,3-dimethyl-phenyl]Propanoic Acid]",0.542 µM,> 10 µM
"Cc1c(CCC(=O)O)ccc(OCC2=C(c3cccs3)CCC2)c1C [Compound 77, 3-[2,3-dimethyl-4-[[2-(2-thienyl)cyclopenten-1-yl]methoxy]phenyl]Propanoic Acid]",0.508 µM,> 10 µM
"Cc1ccc(C2=C(COc3ccc(CCC(=O)O)c(F)c3F)CCC2)cc1F [Compound 78, 3-(2,3-difluoro-4-((2-(3-fluoro-4-methylphenyl)cyclopent-1-en-1-yl)methoxy)phenyl)Propanoic Acid]",0.094 µM,> 5 µM
"Cc1c(CCC(=O)O)ccc(OCC2=C(c3nccs3)CCC2)c1C [Compound 79, 3-[2,3-dimethyl-4-[(2-thiazol-2-ylcyclopenten-1-yl)methoxy]phenyl]Propanoic Acid]",0.76 µM,> 5 µM
"Cc1ccc(C2=C(COc3ccc(CCC(=O)O)c(C)c3C)CCC2)cc1F [Compound 80, 3-(4-((2-(3-fluoro-4-methylphenyl)cyclopent-1-en-1-yl)methoxy)-2,3-dimethylphenyl)Propanoic Acid]",0.081 µM,> 5 µM
Cc1ccc(C2=C(COc3ccc(CCC(=O)O)c(C)c3C)CCC2)c(C)c1 [Compound 82],0.372 µM,> 5 µM
"Cc1ccc(C2=C(COc3ccc(CCC(=O)O)c(F)c3F)CCC2)cc1C [Compound 83, 3-(4-((2-(3,4-dimethylphenyl)cyclopent-1-en-1-yl)methoxy)-2,3-difluorophenyl)Propanoic Acid]",0.59 µM,> 5 µM
"Cc1ccc(C2=C(COc3c(F)cc(CCC(=O)O)cc3F)CCC2)cc1C [Compound 84, 3-(4-((2-(3,4-dimethylphenyl)cyclopent-1-en-1-yl)methoxy)-3,5-difluorophenyl)Propanoic Acid]",1.74 µM,> 5 µM
"Cc1ccc(C2=C(COc3ccc(CCC(=O)O)c(C)c3C)CCC2)cn1 [Compound 85, 3-(2,3-dimethyl-4-((2-(6-methylpyridin-3-yl)cyclopent-1-en-1-yl)methoxy)phenyl)Propanoic Acid]",0.605 µM,> 5 µM
"Cc1c(CCC(=O)O)ccc(OCC2=C(c3cncs3)CCC2)c1C [Compound 88, 3-[2,3-dimethyl-4-[(2-thiazol-5-ylcyclopenten-1-yl)methoxy]phenyl]Propanoic Acid]",0.461 µM,> 5 µM
"Cc1ccc(C2=C(COc3ccc(CCC(=O)O)c(F)c3F)CCC2)cc1N [Compound 93, 3-(4-((2-(3-amino-4-methylphenyl)cyclopent-1-en-1-yl)methoxy)-2,3-difluorophenyl)Propanoic Acid]",0.427 µM,> 5 µM
"Cc1ccc(C2=C(COc3ccc(CCC(=O)O)c(F)c3F)CCC2)cc1 [Compound 94, 3-(2,3-difluoro-4-((2-(p-tolyl)cyclopent-1-en-1-yl)methoxy)phenyl)Propanoic Acid]",0.4 µM,> 5 µM
"Cc1ccc(C2=C(COc3c(F)cc(CCC(=O)O)cc3F)CCC2)cc1 [Compound 95, 3-(3,5-difluoro-4-((2-(p-tolyl)cyclopent-1-en-1-yl)methoxy)phenyl)Propanoic Acid]",0.378 µM,> 5 µM
"Cc1ccc(C2=C(COc3ccc(CCC(=O)O)cc3C)CCC2)cn1 [Compound 102, 3-(3-methyl-4-((2-(6-methylpyridin-3-yl)cyclopent-1-en-1-yl)methoxy)phenyl)Propanoic Acid]",0.781 µM,> 5 µM
"Cc1c(CCC(=O)O)ccc(OCC2=C(c3ncccn3)CCC2)c1C [Compound 105, 3-[2,3-dimethyl-4-[(2-pyrimidin-2-ylcyclopenten-1-yl)methoxy]phenyl]Propanoic Acid]",1.63 µM,> 5 µM
"Cc1ccc(C2=C(COc3ccc(CCC(=O)O)c(C)c3C)CCC2)cc1C [Compound 106, 3-(4-((2-(3,4-dimethylphenyl)cyclopent-1-en-1-yl)methoxy)-2,3-dimethylphenyl)Propanoic Acid]",0.572 µM,> 5 µM
"Cc1c(CCC(=O)O)ccc(OCC2=C(c3cccnc3)CCC2)c1C [Compound 108, 3-[2,3-dimethyl-4-[[2-(3-pyridyl)cyclopenten-1-yl]methoxy]phenyl]Propanoic Acid]",1.05 µM,> 5 µM
"Cc1c(CCC(=O)O)ccc(OCC2=C(c3ccc(Cl)cc3)CC(F)(F)C2)c1C [Compound 137, 3-[4-[[2-(4-chlorophenyl)-4,4-difluoro-cyclopenten-1-yl]methoxy]-2,3-dimethyl-phenyl]Propanoic Acid]",–,> 5 µM

# Second part, the molecule after the results:
EC50 (Human GPR120 short form),EC50 (human GPR40),Compound
0.294 µM,> 5 µM,"Cc1c(CCC(=O)O)ccc(OCC2=C(c3ccc(F)cc3)CCC2)c1C [Compound 4, 3-[4-[[2-(4-fluorophenyl)cyclopenten-1-yl]methoxy]-2,3-dimethyl-phenyl]Propanoic Acid]"
0.206 µM,> 5 µM,"Cc1c(CCC(=O)O)ccc(OCC2=C(c3ccc(Cl)cc3)CCC2)c1C [Compound 15, 3-(4-((2-(4-chlorophenyl)cyclopent-1-en-1-yl)methoxy)-2,3-dimethylphenyl)Propanoic Acid]"
0.198 µM,> 5 µM,"CCc1ccc(C2=C(COc3c(F)cc(CCC(=O)O)cc3F)CCC2)cc1 [Compound 16, 3-(4-((2-(4-ethylphenyl)cyclopent-1-en-1-yl)methoxy)-3,5-difluorophenyl)Propanoic Acid]"
> 20 µM,> 5 µM,"Cc1c(CCC(=O)O)ccc(OCC2=C(c3ccc(OC(F)(F)F)cc3)CCC2)c1C [Compound 20, 3-(2,3-dimethyl-4-((2-(4-(trifluoromethoxy)phenyl)cyclopent-1-en-1-yl)methoxy)phenyl)Propanoic Acid]"
0.301 µM,> 5 µM,"Cc1c(CCC(=O)O)ccc(OCC2=C(c3ccccc3)CCC2)c1C [Compound 23, 3-(2,3-dimethyl-4-((2-phenylcyclopent-1-en-1-yl)methoxy)phenyl)Propanoic Acid]"
0.129 µM,> 5 µM,"CCc1ccc(C2=C(COc3ccc(CCC(=O)O)c(F)c3F)CCC2)cc1 [Compound 25, 3-(4-((2-(4-ethylphenyl)cyclopent-1-en-1-yl)methoxy)-2,3-difluorophenyl)Propanoic Acid]"
0.256 µM,> 5 µM,"CCc1ccc(C2=C(COc3ccc(CCC(=O)O)c(C)c3C)CCC2)cc1 [Compound 27, 3-(4-((2-(4-ethylphenyl)cyclopent-1-en-1-yl)methoxy)-2,3-dimethylphenyl)Propanoic Acid]"
0.582 µM,0.932 µM,"O=C(O)CCc1ccc(OCC2=C(c3ccc(Cl)cc3)CCC2)cc1F [Compound 47, 3-[4-[[2-(4-chlorophenyl)cyclopenten-1-yl]methoxy]-2-fluoro-phenyl]Propanoic Acid]"
0.55 µM,> 5 µM,"O=C(O)CCc1cc(F)c(OCC2=C(c3ccc(Cl)cc3)CCC2)c(F)c1 [Compound 60, 3-[4-[[2-(4-chlorophenyl)cyclopenten-1-yl]methoxy]-3,5-difluoro-phenyl]Propanoic Acid]"
0.136 µM,> 5 µM,"Cc1cc(CCC(=O)O)ccc1OCC1=C(c2ccc(Cl)cc2)CCC1 [Compound 62, 3-[4-[[2-(4-chlorophenyl)cyclopenten-1-yl]methoxy]-3-methyl-phenyl]Propanoic Acid]"
2.49 µM,> 5 µM,"COc1cc(F)cc(C2=C(COc3ccc(CCC(=O)O)c(C)c3C)CCC2)c1 [Compound 65, 3-[4-[[2-(3-fluoro-5-methoxy-phenyl)cyclopenten-1-yl]methoxy]-2,3-dimethyl-phenyl]Propanoic Acid]"
